Test results from patent US4345938A, “Herbicidal 2-haloacetanilides” (Monsanto Company, priority 1980, dated 1982).

Tests used:
Format in all cases: in vivo
[1] = tested on: Upland seeded rice; test: Upland seeded rice greenhouse test, rice safety
Protocol: (§1) In another comparative test in the greenhouse, the compound of Example 2 and Compound B were tested in Upland seeded rice. […] In contrast, Compound A, (a commercial rice herbicide), required 0.14 kg/ha (0.125 lb/A) to selectively control the same weed with rice safety also maintained at 1.12 kg/ha resulting in a selectivity factor of at least 8, i.e., less than one-half that of the compound of Example 2.

[2] = tested on: Echinochloa crus-galli; test: Upland seeded rice greenhouse test, barnyardgrass; conditions: for rate for selective control of Echinochloa crus-galli / selectivity factor, Echinochloa crus-galli in Upland seeded rice: Upland seeded rice, greenhouse
Protocol: as §1

[3] = tested on: Smartweed; test: Pre-emergent herbicidal test, Smartweed; note: ranges in brackets are in %
Source text: (§2) A good grade of top soil is placed in aluminum pans and compacted to a depth of three-eights to one-half inch from the top of the pan. On the top of the soil is placed a number of seeds or vegetative propagules of various plant species. The soil required to level fill the pans after seeding or adding vegetative propagules is weighted into a pan. The soil and a known amount of the active ingredient applied in a solvent or as a wettable powder suspension are thoroughly mixed, and used to cover the prepared pans. After treatment, the pans are moved into a greenhouse bench where they are watered by subirrigation as needed to give adequate moisture for germination and growth.
(§3) Approximately 2 weeks after seeding and treating, the plants were observed and the results recorded. The herbicidal rating was obtained by means of a fixed scale based on the percent injury of each plant species. The ratings are defined as follows: […]

[4] = tested on: Cocklebur; test: Pre-emergent herbicidal test, Cocklebur; note: ranges in brackets are in %
Source text: as §2, §3

[5] = tested on: Johnsongrass; test: Pre-emergent herbicidal test, Johnsongrass; conditions: Table I; note: ranges in brackets are in %
Source text: as §2, §3

[6] = tested on: Velvetleaf; test: Pre-emergent herbicidal test, Velvetleaf; note: ranges in brackets are in %
Source text: as §2, §3

[7] = tested on: Panicum Spp.; test: Pre-emergent herbicidal test, Panicum Spp.; note: ranges in brackets are in %; conditions: Table II
Source text: as §2, §3
(§4) The compounds were further tested by utilizing the above procedure on the following plant species: […]

[8] = tested on: Rice; test: Pre-emergent herbicidal test, Rice; conditions: Table II; note: ranges in brackets are in %
Source text: as §2, §3, §4

[9] = tested on: direct-seeded rice; test: Field tests in direct-seeded rice; conditions: less tolerant than transplant rice
Source text: The herbicides of this invention may be used singly, as mixtures with other herbicides and may be used in sequential use with other herbicides. For example, treatments of a transplant rice crop with the herbicides of this invention may be followed with treatments of other herbicides or mixtures such as S-4-chlorobenzyl diethylthiocarbamate (common name "benthiocarb") plus 2-chloro-4,6-di(ethylamino)-1,3,5-triazine (common name "simazine") or 3-isopropyl-(1H)-benzo-2,1,3-thiadiazine-4-one-2,2-dioxide (common name "bentazone") or 4-(4-chloro-2-methylphenoxy)butyric acid (common name "MCPB"). […] However, because of the high unit activity of compounds according to this invention against annual and perennial weeds associated with rice, it is within the purview of this invention to combine these herbicides with safeners or antidotes, to enhance the tolerance of both transplanted and direct-seeded rice thereto. Exemplary safeners contemplated as useful with the herbicides of this invention include the phenylglyoxylonitrile-2-oxime cyanomethyl ether described in U.S. Pat. No. 4,152,137, 2,4-disubstituted-5-thiazolecarboxylic acids and derivatives thereof as disclosed in the assignee's copending U.S. Ser. No. 906,183 and other known safeners for 2-haloacetanilides in rice.

[10] = tested on: Morningglory; test: Pre-emergent herbicidal test, Morningglory; note: ranges in brackets are in %
Source text: as §2, §3

[11] = tested on: Hemp Sesbania; test: Pre-emergent herbicidal test, Hemp Sesbania; conditions: Table II; note: ranges in brackets are in %
Source text: as §2, §3, §4

[12] = tested on: Soybean; test: Pre-emergent herbicidal test, Soybean; conditions: Table II; note: ranges in brackets are in %
Source text: as §2, §3, §4

[13] = tested on: Wheat; test: Pre-emergent herbicidal test, Wheat; conditions: Table II; note: ranges in brackets are in %
Source text: as §2, §3, §4

[14] = tested on: Sugarbeet; test: Pre-emergent herbicidal test, Sugarbeet; conditions: Table II; note: ranges in brackets are in %
Source text: as §2, §3, §4

## CCCCOCN(C(=O)CCl)c1c(CC)cccc1CC [Compound A, 2',6'-diethyl-N-(n-butoxymethyl)-2-chloroacetanilide]
[1]; Upland seeded rice, greenhouse, maximum test rate
  rate at which rice safety is maintained: ≥ 1.12 kg/ha
[2]
  rate for selective control of Echinochloa crus-galli: 0.14 kg/ha
  selectivity factor, Echinochloa crus-galli in Upland seeded rice: at least 8

## CCCCOc1cccc(CC)c1N(C)C(=O)CCl [Example 1, N-methyl-2'-n-butoxy-6'-ethyl-2-chloroacetanilide]
[3]; Table I, 5.6 kg/h
  Rating, Smartweed: 2 (50-74)
[3]; Table I, 11.2 kg/h
  Rating, Smartweed: 3 (75-100)
[3]; Table II, 0.006 kg/h
  Rating, Smartweed: 0 (0-24)
[3]; Table II, 0.01 kg/h
  Rating, Smartweed: 0 (0-24)
[3]; Table II, 0.06 kg/h
  Rating, Smartweed: 0 (0-24)
[3]; Table II, 0.28 kg/h
  Rating, Smartweed: 2 (50-74)
[3]; Table II, 1.12 kg/h
  Rating, Smartweed: 3 (75-100)
[3]; Table II, 5.6 kg/h
  Rating, Smartweed: 3 (75-100)
[4]; Table II, 0.06 kg/h
  Rating, Cocklebur: 0 (0-24)
[4]; Table II, 5.6 kg/h
  Rating, Cocklebur: 0 (0-24)
[5]; 5.6 kg/h
  Rating, Johnsongrass: 3 (75-100)
[5]; 11.2 kg/h
  Rating, Johnsongrass: 3 (75-100)
[6]; Table I, 5.6 kg/h
  Rating, Velvetleaf: 2 (50-74)
[6]; Table I, 11.2 kg/h
  Rating, Velvetleaf: 2 (50-74)
[6]; Table II, 0.006 kg/h
  Rating, Velvetleaf: 0 (0-24)
[6]; Table II, 0.01 kg/h
  Rating, Velvetleaf: 0 (0-24)
[6]; Table II, 0.06 kg/h
  Rating, Velvetleaf: 0 (0-24)
[6]; Table II, 0.28 kg/h
  Rating, Velvetleaf: 0 (0-24)
[6]; Table II, 1.12 kg/h
  Rating, Velvetleaf: 1 (25-49)
[6]; Table II, 5.6 kg/h
  Rating, Velvetleaf: 1 (25-49)
[7]; 0.006 kg/h
  Rating, Panicum Spp.: 0 (0-24)
[7]; 0.01 kg/h
  Rating, Panicum Spp.: 1 (25-49)
[7]; 0.06 kg/h
  Rating, Panicum Spp.: 3 (75-100)
[7]; 0.28 kg/h
  Rating, Panicum Spp.: 3 (75-100)
[7]; 1.12 kg/h
  Rating, Panicum Spp.: 3 (75-100)
[7]; 5.6 kg/h
  Rating, Panicum Spp.: 3 (75-100)
[8]; 0.006 kg/h
  Rating, Rice: 1 (25-49)
[8]; 0.01 kg/h
  Rating, Rice: 1 (25-49)
[8]; 0.06 kg/h
  Rating, Rice: 1 (25-49)
[8]; 0.28 kg/h
  Rating, Rice: 3 (75-100)
[8]; 1.12 kg/h
  Rating, Rice: 3 (75-100)
[8]; 5.6 kg/h
  Rating, Rice: 3 (75-100)
[9]
  efficacy in direct-seeded rice: less-efficacious
[10]; Table I, 5.6 kg/h
  Rating, Morningglory: 2 (50-74)
[10]; Table I, 11.2 kg/h
  Rating, Morningglory: 1 (25-49)
[10]; Table II, 0.006 kg/h
  Rating, Morningglory: 0 (0-24)
[10]; Table II, 0.06 kg/h
  Rating, Morningglory: 0 (0-24)
[10]; Table II, 0.28 kg/h
  Rating, Morningglory: 0 (0-24)
[10]; Table II, 1.12 kg/h
  Rating, Morningglory: 2 (50-74)
[10]; Table II, 5.6 kg/h
  Rating, Morningglory: 3 (75-100)
[11]; 0.006 kg/h
  Rating, Hemp Sesbania: 2 (50-74)
[11]; 0.01 kg/h
  Rating, Hemp Sesbania: 2 (50-74)
[11]; 0.06 kg/h
  Rating, Hemp Sesbania: 3 (75-100)
[11]; 0.28 kg/h
  Rating, Hemp Sesbania: 3 (75-100)
[11]; 1.12 kg/h
  Rating, Hemp Sesbania: 3 (75-100)
[11]; 5.6 kg/h
  Rating, Hemp Sesbania: 3 (75-100)
[12]; 0.006 kg/h
  Rating, Soybean: 0 (0-24)
[12]; 0.01 kg/h
  Rating, Soybean: 0 (0-24)
[12]; 0.06 kg/h
  Rating, Soybean: 0 (0-24)
[12]; 0.28 kg/h
  Rating, Soybean: 0 (0-24)
[12]; 1.12 kg/h
  Rating, Soybean: 0 (0-24)
[12]; 5.6 kg/h
  Rating, Soybean: 1 (25-49)
[13]; 0.006 kg/h
  Rating, Wheat: 0 (0-24)
[13]; 0.01 kg/h
  Rating, Wheat: 0 (0-24)
[13]; 0.06 kg/h
  Rating, Wheat: 1 (25-49)
[13]; 0.28 kg/h
  Rating, Wheat: 2 (50-74)
[13]; 1.12 kg/h
  Rating, Wheat: 2 (50-74)
[13]; 5.6 kg/h
  Rating, Wheat: 3 (75-100)
[14]; 0.006 kg/h
  Rating, Sugarbeet: 0 (0-24)
[14]; 0.01 kg/h
  Rating, Sugarbeet: 0 (0-24)
[14]; 0.06 kg/h
  Rating, Sugarbeet: 0 (0-24)
[14]; 0.28 kg/h
  Rating, Sugarbeet: 1 (25-49)
[14]; 1.12 kg/h
  Rating, Sugarbeet: 2 (50-74)
[14]; 5.6 kg/h
  Rating, Sugarbeet: 3 (75-100)

## CCCCOc1cccc(CC)c1N(CC)C(=O)CCl [Example 2, N-ethyl-2'-n-butoxy-6'-ethyl-2-chloroacetanilide]
[3]; Table I, 5.6 kg/h
  Rating, Smartweed: 3 (75-100)
[3]; Table I, 11.2 kg/h
  Rating, Smartweed: 3 (75-100)
[3]; Table II, 0.01 kg/h
  Rating, Smartweed: 0 (0-24)
[3]; Table II, 0.06 kg/h
  Rating, Smartweed: 0 (0-24)
[3]; Table II, 0.28 kg/h
  Rating, Smartweed: 0 (0-24)
[3]; Table II, 1.12 kg/h
  Rating, Smartweed: 2 (50-74)
[3]; Table II, 5.6 kg/h
  Rating, Smartweed: 3 (75-100)
[1]; in vivo
  rate at which rice safety is maintained: ≥ 1.12 kg/ha
[4]; Table I, 5.6 kg/h
  Rating, Cocklebur: 0 (0-24)
[4]; Table I, 11.2 kg/h
  Rating, Cocklebur: 0 (0-24)
[4]; Table II, 0.01 kg/h
  Rating, Cocklebur: 0 (0-24)
[4]; Table II, 0.06 kg/h
  Rating, Cocklebur: 0 (0-24)
[4]; Table II, 0.28 kg/h
  Rating, Cocklebur: 0 (0-24)
[4]; Table II, 1.12 kg/h
  Rating, Cocklebur: 0 (0-24)
[4]; Table II, 5.6 kg/h
  Rating, Cocklebur: 1 (25-49)
[5]; 5.6 kg/h
  Rating, Johnsongrass: 2 (50-74)
[5]; 11.2 kg/h
  Rating, Johnsongrass: 3 (75-100)
[6]; Table I, 5.6 kg/h
  Rating, Velvetleaf: 0 (0-24)
[6]; Table I, 11.2 kg/h
  Rating, Velvetleaf: 1 (25-49)
[6]; Table II, 0.01 kg/h
  Rating, Velvetleaf: 0 (0-24)
[6]; Table II, 0.06 kg/h
  Rating, Velvetleaf: 0 (0-24)
[6]; Table II, 0.28 kg/h
  Rating, Velvetleaf: 0 (0-24)
[6]; Table II, 1.12 kg/h
  Rating, Velvetleaf: 0 (0-24)
[6]; Table II, 5.6 kg/h
  Rating, Velvetleaf: 1 (25-49)
[7]; 0.01 kg/h
  Rating, Panicum Spp.: 0 (0-24)
[7]; 0.06 kg/h
  Rating, Panicum Spp.: 1 (25-49)
[7]; 0.28 kg/h
  Rating, Panicum Spp.: 3 (75-100)
[7]; 1.12 kg/h
  Rating, Panicum Spp.: 3 (75-100)
[7]; 5.6 kg/h
  Rating, Panicum Spp.: 3 (75-100)
[2]
  rate for selective control of Echinochloa crus-galli: 0.064 kg/ha
  selectivity factor, Echinochloa crus-galli in Upland seeded rice: at least 17.5
[2]; upland-seeded rice test, 0.0087 kg/ha (0.0078 lb/A)
  control of barnyardgrass: 20%
[8]; 0.01 kg/h
  Rating, Rice: 0 (0-24)
[8]; 0.06 kg/h
  Rating, Rice: 0 (0-24)
[8]; 0.28 kg/h
  Rating, Rice: 1 (25-49)
[8]; 1.12 kg/h
  Rating, Rice: 3 (75-100)
[8]; 5.6 kg/h
  Rating, Rice: 3 (75-100)
[10]; Table I, 5.6 kg/h
  Rating, Morningglory: 0 (0-24)
[10]; Table I, 11.2 kg/h
  Rating, Morningglory: 2 (50-74)
[10]; Table II, 0.01 kg/h
  Rating, Morningglory: 0 (0-24)
[10]; Table II, 0.06 kg/h
  Rating, Morningglory: 0 (0-24)
[10]; Table II, 0.28 kg/h
  Rating, Morningglory: 0 (0-24)
[10]; Table II, 1.12 kg/h
  Rating, Morningglory: 0 (0-24)
[10]; Table II, 5.6 kg/h
  Rating, Morningglory: 1 (25-49)
[11]; 0.01 kg/h
  Rating, Hemp Sesbania: 0 (0-24)
[11]; 0.06 kg/h
  Rating, Hemp Sesbania: 0 (0-24)
[11]; 0.28 kg/h
  Rating, Hemp Sesbania: 0 (0-24)
[11]; 1.12 kg/h
  Rating, Hemp Sesbania: 2 (50-74)
[11]; 5.6 kg/h
  Rating, Hemp Sesbania: 2 (50-74)
[12]; 0.01 kg/h
  Rating, Soybean: 0 (0-24)
[12]; 0.06 kg/h
  Rating, Soybean: 0 (0-24)
[12]; 0.28 kg/h
  Rating, Soybean: 0 (0-24)
[12]; 1.12 kg/h
  Rating, Soybean: 0 (0-24)
[12]; 5.6 kg/h
  Rating, Soybean: 1 (25-49)
[13]; 0.01 kg/h
  Rating, Wheat: 0 (0-24)
[13]; 0.06 kg/h
  Rating, Wheat: 0 (0-24)
[13]; 0.28 kg/h
  Rating, Wheat: 1 (25-49)
[13]; 1.12 kg/h
  Rating, Wheat: 2 (50-74)
[13]; 5.6 kg/h
  Rating, Wheat: 3 (75-100)
[14]; 0.01 kg/h
  Rating, Sugarbeet: 0 (0-24)
[14]; 0.06 kg/h
  Rating, Sugarbeet: 0 (0-24)
[14]; 0.28 kg/h
  Rating, Sugarbeet: 1 (25-49)
[14]; 1.12 kg/h
  Rating, Sugarbeet: 2 (50-74)
[14]; 5.6 kg/h
  Rating, Sugarbeet: 2 (50-74)
